From ChEMBL document CHEMBL1201862, “PubChem BioAssay data set” (2004)
Activity calls are given as the source filed them. Cut-off read from the data, not from the text of the source, for most assays here: actives have a measured EC50 and inactives only a lower limit.

Key:
HT-1080 = test: cytotoxicity in HT1080 fibrosarcoma cells, cell-based, fluorescence readout (AID 620); assay type: functional; conditions: Homo sapiens
[1] = biological target: Luciferin 4-monooxygenase (Photinus pyralis, UniProt P08659); test: Counter Screen for Luciferase-based Assay Positives. [Related pubchem assays: 620, 618, 411 ]
Chain of Luciferin 4-monooxygenase (P08659 whole entry): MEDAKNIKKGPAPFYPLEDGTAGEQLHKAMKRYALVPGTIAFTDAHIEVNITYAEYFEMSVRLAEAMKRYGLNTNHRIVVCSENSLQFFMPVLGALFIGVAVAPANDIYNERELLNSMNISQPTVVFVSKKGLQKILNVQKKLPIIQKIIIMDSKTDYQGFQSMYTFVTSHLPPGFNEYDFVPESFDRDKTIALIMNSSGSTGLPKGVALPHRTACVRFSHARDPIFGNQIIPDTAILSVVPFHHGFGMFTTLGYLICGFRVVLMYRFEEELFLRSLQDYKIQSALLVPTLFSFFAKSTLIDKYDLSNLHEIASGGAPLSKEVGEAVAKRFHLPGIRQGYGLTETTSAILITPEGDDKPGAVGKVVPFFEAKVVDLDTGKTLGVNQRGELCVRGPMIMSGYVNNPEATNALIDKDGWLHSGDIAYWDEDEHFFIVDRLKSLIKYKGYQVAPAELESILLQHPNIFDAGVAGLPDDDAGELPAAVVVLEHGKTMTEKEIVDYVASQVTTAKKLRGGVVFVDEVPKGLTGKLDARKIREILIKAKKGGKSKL

[2] = biological target: T1, Mannose-6-phosphate isomerase (Homo sapiens, UniProt P34949); test: human PMI inhibitors, high substrate, primary screen, biochemical, fluorescence intensity, high mannose 6-phosphate (AID 1220)
T1 sequence (P34949 whole entry): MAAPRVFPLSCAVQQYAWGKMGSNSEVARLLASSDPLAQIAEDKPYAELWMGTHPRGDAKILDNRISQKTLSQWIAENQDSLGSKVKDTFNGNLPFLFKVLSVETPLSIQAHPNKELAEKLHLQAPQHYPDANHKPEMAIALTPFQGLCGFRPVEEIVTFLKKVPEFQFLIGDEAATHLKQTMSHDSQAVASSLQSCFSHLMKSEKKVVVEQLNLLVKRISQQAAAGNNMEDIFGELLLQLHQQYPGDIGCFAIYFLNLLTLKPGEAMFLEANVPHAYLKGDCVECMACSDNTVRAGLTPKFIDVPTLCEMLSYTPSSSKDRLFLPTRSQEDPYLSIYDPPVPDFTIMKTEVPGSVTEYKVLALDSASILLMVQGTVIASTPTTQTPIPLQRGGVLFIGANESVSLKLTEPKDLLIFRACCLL

Aspartyl aminopeptidase = biological target: T2, Aspartyl aminopeptidase (Plasmodium falciparum 3D7, UniProt Q8I2J3)
T2 sequence (Q8I2J3 whole entry): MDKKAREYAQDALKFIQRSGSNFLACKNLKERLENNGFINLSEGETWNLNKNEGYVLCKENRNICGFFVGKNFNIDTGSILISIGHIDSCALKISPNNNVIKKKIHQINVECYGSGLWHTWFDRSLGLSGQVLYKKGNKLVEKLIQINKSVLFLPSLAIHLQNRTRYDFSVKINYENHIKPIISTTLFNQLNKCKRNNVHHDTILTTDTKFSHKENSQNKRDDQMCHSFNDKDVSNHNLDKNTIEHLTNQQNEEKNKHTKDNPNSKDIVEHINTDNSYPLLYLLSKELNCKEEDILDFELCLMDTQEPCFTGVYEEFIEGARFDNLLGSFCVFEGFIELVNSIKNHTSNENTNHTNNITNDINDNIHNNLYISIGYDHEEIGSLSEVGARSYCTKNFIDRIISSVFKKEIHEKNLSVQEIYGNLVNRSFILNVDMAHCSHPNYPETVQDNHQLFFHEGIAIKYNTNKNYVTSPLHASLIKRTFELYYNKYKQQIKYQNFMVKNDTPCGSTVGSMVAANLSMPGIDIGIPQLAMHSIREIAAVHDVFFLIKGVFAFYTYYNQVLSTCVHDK

Procathepsin L = Procathepsin L (Homo sapiens, UniProt P07711)
Chain of Procathepsin L (P07711 whole entry): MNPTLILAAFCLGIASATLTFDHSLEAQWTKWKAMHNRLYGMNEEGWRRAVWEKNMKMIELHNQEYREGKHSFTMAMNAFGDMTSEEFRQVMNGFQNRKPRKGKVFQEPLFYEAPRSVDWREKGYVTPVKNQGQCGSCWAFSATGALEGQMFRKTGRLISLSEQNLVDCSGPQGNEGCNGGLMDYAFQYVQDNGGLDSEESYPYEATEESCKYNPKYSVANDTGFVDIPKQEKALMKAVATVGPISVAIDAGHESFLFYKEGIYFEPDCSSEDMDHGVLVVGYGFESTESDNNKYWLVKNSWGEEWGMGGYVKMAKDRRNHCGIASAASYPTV

[3] = biological target: Glucose-6-phosphate 1-dehydrogenase (Homo sapiens, UniProt P11413); test: human G6PD enzyme inhibitors, dose response, selectivity assay for P. falciparum G6PD inhibitor project, biochemical, fluorescence (AID 504792); assay type: functional
Chain of Glucose-6-phosphate 1-dehydrogenase (P11413 whole entry): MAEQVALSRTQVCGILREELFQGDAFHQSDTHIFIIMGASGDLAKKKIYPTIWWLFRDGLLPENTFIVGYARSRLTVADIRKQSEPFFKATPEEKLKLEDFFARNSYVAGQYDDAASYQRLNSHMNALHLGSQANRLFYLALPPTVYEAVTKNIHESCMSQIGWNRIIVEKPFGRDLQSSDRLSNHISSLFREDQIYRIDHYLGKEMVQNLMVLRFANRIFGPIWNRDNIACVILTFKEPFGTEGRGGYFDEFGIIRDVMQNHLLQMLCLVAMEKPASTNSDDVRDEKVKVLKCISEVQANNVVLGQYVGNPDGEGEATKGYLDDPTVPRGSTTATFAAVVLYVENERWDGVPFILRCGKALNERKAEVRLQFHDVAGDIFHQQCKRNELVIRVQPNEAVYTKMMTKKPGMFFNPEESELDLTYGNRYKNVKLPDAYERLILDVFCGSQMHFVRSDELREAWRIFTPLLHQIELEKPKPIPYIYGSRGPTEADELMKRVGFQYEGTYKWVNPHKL

[4] = inhibitors of SNCA 5'UTR-driven translation, confirmation, luminescence, H4 neuroglioblastoma cells, dose confirmation (AID 2454); assay type: functional, cell-based;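 note: H4 neuroglioblastoma cells carrying an alpha-synuclein 5'UTR luciferase reporter; potency for inhibition of the luciferase signal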
[5] = inhibitors of SNCA 5'UTR-driven reporter translation, confirmation, H4 neuroglioma cells, luminescence (AID 1988); assay type: functional, cell-based
[6] = cytotoxicity toward DRD oncogenic fibroblasts, dose response, cell-based, non-viral oncogenic, luminescence (AID 1934); assay type: functional; conditions: Homo sapiens
[7] = luciferase reporter signal reduction – luminescence, H4-C neuroglioblastoma cells, dose response (AID 2458); assay type: functional, cell-based;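 note: H4 neuroglioblastoma cells stably carrying a luciferase reporter gene fusion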
BJ [8] = test: cytotoxicity toward BJ-TERT fibroblasts, dose response, cell-based, RAS-independent, luminescence (AID 1933); assay type: functional; conditions: Homo sapiens
cells [9] = assay type: functional, cell-based
BJ [10] = test: cytotoxicity toward BJ-TERT-LT-ST fibroblasts, dose response, cell-based, RAS-independent, luminescence (AID 1935); assay type: functional; conditions: Homo sapiens;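 note: BJ fibroblasts immortalized with TERT plus LT and ST oncogenes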
BJ [11] = test: cells; assay type: functional, cell-based; conditions: Homo sapiens
[12] = C. albicans growth with fluconazole, confirmation, fluorescence, retest (AID 2467); assay type: functional, cell-based
Leucine aminopeptidase = biological target: T3, Leucine aminopeptidase (Plasmodium falciparum 3D7, UniProt Q8IL11); test: P. falciparum M17LAP inhibitors, primary screen, biochemical, fluorogenic H-Leu-NHMec substrate, 1536-well (AID 1619); assay type: functional
T3 sequence (Q8IL11 whole entry): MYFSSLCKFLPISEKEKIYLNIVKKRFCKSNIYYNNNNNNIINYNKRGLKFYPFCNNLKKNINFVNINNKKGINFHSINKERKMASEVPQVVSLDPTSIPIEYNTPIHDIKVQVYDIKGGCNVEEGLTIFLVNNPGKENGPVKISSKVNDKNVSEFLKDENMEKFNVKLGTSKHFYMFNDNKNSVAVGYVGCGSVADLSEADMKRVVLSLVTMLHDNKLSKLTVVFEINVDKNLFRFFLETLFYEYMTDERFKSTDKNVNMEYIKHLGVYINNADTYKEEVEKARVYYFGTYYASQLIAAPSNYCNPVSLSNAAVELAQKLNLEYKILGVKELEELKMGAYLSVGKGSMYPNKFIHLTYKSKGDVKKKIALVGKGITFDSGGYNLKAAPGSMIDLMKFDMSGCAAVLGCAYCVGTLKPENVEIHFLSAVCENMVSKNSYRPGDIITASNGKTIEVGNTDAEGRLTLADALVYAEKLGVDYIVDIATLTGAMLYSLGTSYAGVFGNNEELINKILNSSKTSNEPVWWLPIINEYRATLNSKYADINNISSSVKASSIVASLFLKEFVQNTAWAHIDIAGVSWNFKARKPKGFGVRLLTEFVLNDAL

[13] = NIH-3T3 fibroblast cytotoxicity, dose response, cytotoxicity control, cell-based, fluorescence, Alamar Blue, secondary assay (AID 2327); assay type: functional;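 note: NIH-3T3 mouse fibroblasts cultured with fluconazole at 8 µg/mL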
[14] = biological target: T4, Histone-lysine N-methyltransferase NSD2 (Homo sapiens, UniProt O96028); assay type: biochemical
T4 sequence (O96028 whole entry): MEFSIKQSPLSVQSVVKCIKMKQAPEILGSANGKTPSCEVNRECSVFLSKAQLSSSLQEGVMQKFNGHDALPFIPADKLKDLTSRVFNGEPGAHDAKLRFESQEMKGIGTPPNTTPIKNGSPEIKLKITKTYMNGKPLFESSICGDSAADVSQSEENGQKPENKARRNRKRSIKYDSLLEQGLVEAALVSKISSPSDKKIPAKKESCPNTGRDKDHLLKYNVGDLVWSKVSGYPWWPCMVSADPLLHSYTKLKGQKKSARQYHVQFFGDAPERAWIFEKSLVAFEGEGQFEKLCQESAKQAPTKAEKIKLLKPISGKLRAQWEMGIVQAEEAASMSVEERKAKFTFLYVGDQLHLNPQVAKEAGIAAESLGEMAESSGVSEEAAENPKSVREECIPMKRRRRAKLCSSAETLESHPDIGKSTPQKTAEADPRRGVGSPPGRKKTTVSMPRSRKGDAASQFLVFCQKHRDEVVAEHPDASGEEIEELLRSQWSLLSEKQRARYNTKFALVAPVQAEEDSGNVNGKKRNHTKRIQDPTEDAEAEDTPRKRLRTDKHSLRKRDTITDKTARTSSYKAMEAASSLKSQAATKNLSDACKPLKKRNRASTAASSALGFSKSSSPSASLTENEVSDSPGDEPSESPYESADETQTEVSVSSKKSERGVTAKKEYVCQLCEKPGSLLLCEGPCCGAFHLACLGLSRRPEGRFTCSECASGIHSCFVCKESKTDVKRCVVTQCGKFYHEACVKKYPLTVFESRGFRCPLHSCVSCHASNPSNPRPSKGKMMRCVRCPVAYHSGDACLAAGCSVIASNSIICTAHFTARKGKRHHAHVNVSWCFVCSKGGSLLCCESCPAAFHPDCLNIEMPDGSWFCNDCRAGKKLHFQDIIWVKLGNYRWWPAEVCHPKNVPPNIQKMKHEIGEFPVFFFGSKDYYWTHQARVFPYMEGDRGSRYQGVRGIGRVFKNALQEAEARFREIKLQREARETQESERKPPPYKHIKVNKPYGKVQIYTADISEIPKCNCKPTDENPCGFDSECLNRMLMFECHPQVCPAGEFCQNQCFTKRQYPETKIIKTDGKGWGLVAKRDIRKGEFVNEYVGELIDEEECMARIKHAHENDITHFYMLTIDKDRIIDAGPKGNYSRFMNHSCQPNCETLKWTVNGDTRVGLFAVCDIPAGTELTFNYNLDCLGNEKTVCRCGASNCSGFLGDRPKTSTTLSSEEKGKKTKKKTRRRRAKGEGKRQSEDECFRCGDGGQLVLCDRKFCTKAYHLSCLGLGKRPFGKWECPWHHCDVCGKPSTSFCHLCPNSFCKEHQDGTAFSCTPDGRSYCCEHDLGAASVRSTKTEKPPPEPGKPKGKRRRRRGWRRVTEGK

[15] = biological target: T5, Oxysterols receptor LXR-beta (Homo sapiens, UniProt P55055); assay type: functional, cell-based;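 note: Cell-based luminescence dose-response assay of agonist activity at LXR, run as a confirmatory counterscreen to a daf-12 agonist screen; HEK293 cells with Gal4-LXR fusion and GAL4-driven luciferase reporter; agonist potency from rising luciferase signal of a Gal4-LXR reporter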
T5 sequence (P55055 whole entry): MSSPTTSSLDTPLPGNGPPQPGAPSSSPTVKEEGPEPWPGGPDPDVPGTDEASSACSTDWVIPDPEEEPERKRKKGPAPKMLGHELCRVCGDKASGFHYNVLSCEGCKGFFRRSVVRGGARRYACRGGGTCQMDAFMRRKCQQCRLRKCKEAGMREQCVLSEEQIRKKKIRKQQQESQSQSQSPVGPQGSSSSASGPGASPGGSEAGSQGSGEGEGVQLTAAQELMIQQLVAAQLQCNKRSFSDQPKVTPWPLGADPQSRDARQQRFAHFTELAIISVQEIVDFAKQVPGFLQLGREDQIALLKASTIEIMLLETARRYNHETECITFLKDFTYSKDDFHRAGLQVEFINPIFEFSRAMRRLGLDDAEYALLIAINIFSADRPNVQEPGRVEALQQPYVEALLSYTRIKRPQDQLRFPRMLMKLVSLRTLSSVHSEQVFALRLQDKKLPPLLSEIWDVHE

cells [16] = test: cells
Aminopeptidase N = biological target: T6, Aminopeptidase N (Plasmodium falciparum FcB1/Columbia, UniProt O96935); test: P. falciparum M1AAP inhibitors, biochemical, fluorogenic H-Leu-NHMec substrate, 1536-well (AID 1445); design: species or system Plasmodium falciparum 3D7, 3D7
T6 sequence (O96935 whole entry): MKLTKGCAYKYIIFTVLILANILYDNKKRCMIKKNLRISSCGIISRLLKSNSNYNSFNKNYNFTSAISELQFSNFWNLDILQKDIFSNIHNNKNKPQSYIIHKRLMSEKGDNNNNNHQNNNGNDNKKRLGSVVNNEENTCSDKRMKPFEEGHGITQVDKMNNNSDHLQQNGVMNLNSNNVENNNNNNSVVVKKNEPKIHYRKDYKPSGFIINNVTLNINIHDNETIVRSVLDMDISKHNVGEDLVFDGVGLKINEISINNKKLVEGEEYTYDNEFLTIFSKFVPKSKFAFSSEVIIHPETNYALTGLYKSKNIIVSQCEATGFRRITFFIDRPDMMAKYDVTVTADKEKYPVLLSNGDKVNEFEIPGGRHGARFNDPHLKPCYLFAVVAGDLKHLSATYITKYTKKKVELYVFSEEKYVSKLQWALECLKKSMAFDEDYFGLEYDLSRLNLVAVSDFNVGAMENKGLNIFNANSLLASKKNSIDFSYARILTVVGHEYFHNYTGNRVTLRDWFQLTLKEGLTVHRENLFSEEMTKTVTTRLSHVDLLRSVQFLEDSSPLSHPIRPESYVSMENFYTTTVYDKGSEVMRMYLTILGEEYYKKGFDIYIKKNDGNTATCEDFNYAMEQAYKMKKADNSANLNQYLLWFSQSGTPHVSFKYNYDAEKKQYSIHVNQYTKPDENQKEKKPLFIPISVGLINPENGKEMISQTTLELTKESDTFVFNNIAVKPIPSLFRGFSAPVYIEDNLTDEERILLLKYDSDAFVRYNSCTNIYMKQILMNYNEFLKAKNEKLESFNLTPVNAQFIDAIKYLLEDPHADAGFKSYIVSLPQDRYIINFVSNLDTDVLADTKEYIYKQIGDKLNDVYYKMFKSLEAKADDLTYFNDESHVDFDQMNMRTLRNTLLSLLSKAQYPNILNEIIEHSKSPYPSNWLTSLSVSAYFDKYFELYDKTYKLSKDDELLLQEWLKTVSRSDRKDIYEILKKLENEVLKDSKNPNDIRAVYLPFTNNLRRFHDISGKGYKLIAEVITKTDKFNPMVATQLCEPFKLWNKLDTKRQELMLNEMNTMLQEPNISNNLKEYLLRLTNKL

## C=CCn1c(C)cc(C(=O)CSc2ccc(NC(C)=O)cc2)c1C
HT-1080
  EC50: > 50 µM (not active)
[1]
  EC50: 0.77 µM (active)

## C[C@]12CC[C@@H]3c4ccc(O)c(O)c4CC[C@H]3[C@@H]1CC[C@@H]2O
[2]
  IC50: 29 µM (active)
Aspartyl aminopeptidase
  IC50: 1.22 µM (active)
Procathepsin L
  IC50: > 59.6 µM (not active)
[3]
  IC50: 29.1 µM (inactive)

## COC(=O)c1ccc(C)c(NS(=O)(=O)c2ccc(OC)cc2)c1
[4]
  EC50: 0.834 µM (active)
[5]
  EC50: < 0.1 µM (active)
[6]
  EC50: 0.682 µM (active)
[7]
  EC50: > 12 µM (not active)
BJ [8]
  EC50: 0.689 µM (inconclusive)
Cells [9]
  EC50: 1.02 µM (active)
BJ [10]
  EC50: 0.353 µM (inconclusive)
BJ [11]
  EC50: 1.61 µM (active)

## COc1cc([N+](=O)[O-])ccc1NC(=O)Nn1cnnc1
Aspartyl aminopeptidase
  IC50: 0.353 µM (active)
Procathepsin L
  IC50: > 59.6 µM (not active)

## COc1cccc2c(SCC(=O)N/N=C/c3ccc(O)c(O)c3)cc(C)nc12
[12]
  EC50: > 38 µM (not active)
Aspartyl aminopeptidase
  IC50: 2.01 µM (active)
Leucine aminopeptidase
  IC50: 16.2 µM (active)
[13]
  EC50: 26.3 µM (active)
Procathepsin L
  IC50: > 59.6 µM (not active)
[14]
  AC50: 10.4 µM (active)

## Cc1cc(C)c2c(N)c(C(=O)Nc3nccs3)sc2n1
HT-1080
  EC50: > 50 µM (not active)
[15]
  EC50: > 67.5 µM (inactive)
Cells [16]
  EC50: > 67.5 µM (inactive)
[1]
  EC50: > 100 µM (not active)

## CCOc1cc(/C=C2\N=C(SC)SC2=O)cc([N+](=O)[O-])c1OC(C)=O
Aminopeptidase N
  IC50: 26.5 µM (active)
